The text below walks through data of patent publication US11957713B2, “Compositions and methods for treating diseases and disorders of the central nervous system” (priority 2016, dated 2024).

One data set has as its system brain-resident μP. The experiment in a line: Intra-brain (ICV) administration of busulfan through a cannula in the lateral ventricles.
The subject of data set [1] is microglia progenitors, CD45^+c-kit^+ cells. Description: Pretreatment to induce microglia progenitor proliferation. The settings on record: single dose of busulfan 25 mg/kg or ten days oral CSF 1R inhibitor. The data set is classed as in vivo, mice.
Procedure: These NP formulations were injected ICV in the brain of wild type adult animals that were pretreated with i) a single dose of busulfan 25 mg/kg or ii) ten days of oral administered CSF 1R inhibitor ((Elmore et al., Neuron. […] Five days after NP injection, animals were analyzed for the occurrence of Etoposide-mediated killing of microglia cells and/or their progenitors, using busulfan standard treatment (4 doses of 25 mg/kg) as reference for brain microglia progenitor ablation.
The test system of data set [2] is bone marrow and brain clonogenic cells. The experiment in a line: Colony forming unit (CFU) output of bone marrow and brain cells after conditioning. The data set is classed as in vivo, mice. To be noted: busulfan conditioning, 14 days after plating. The protocol:
FIG. 6A depicts an experimental scheme for HCT. CFUs were plated from bone marrow (BM) and brain of naïve (UT), BU-treated and irradiated (IRR) mice, as well as from mice previously transplanted with CD45.2 GFP-transduced HSPCs (BU-HCT). FIG. 6B is a graph depicting number of colonies (#CFC) obtained from the tissues of BU and IRR animals. FIG. 6C is a graph depicting number of colonies (#CFC) and of GFP^+ CFCs obtained from the tissues of BU-HCT animals. FIG. 6D is a graph depicting frequency of GFP^+ cells (and lineage differentiation for BM) retrieved by FACS analysis in BM and brain of secondary recipient mice receiving BM or brain cells or peripheral blood mononuclear cells from primary recipients; mice were sacrificed 4 months after transplant.
HSPCs have been identified within extramedullary tissues and thought to be transiently localized at those sites and able to proliferate locally giving rise to tissue-resident myeloid cells, preferentially dendritic cells. Clonogenic potential was referred to the presence of these cells also in the brain, however upon establishment of parabiotic pairs and differently from what observed in other extra-medullary tissues, chimerism between the two animals was not observed in the brain. […]

In a further data set the test system is CD45^+ brain cells. The experiment in a line: γH2AX (flow cytometry, immunofluorescence) and annexin V in brain after systemic busulfan conditioning. The data set is classed as in vivo, mice. Here is the method:
FIGS. 15A15-C depict identification of brain-resident putative μ progenitors by BU-susceptibility. […] Inset is a representative laser-scanning confocal microscope photomicrographs of co-immunostaining for γH2AX, neurons (NeuN), microglia (Ibal) or astrocytes (GFAP). Sca1e bar=[…]. Images were acquired at confocal microscope Radiance 2100 (Bio-Rad) 1×70 at magnification 20× and processed by the Soft Work 3.5.0; reconstruction was performed with Adobe Photoshop CS 8.0 software. Magnification 40× in the insets.
Previous studies have provided evidence for the existence of i) a functionally defined microglia precursor population located in the brain and susceptible to ablation upon administration of a busulfan-based conditioning and that may coincide with endogenous CNS-resident microglial progenitors (μP). Phosphorylated histone 2AX (γH2AX) is a sensitive and specific biomarker to track the cells targeted by busulfan in the brain. Thus, functional brain resident μP could be identified by taking advantage of busulfan and γH2AX, which is a pharmacodynamic marker of its cytotoxicity within these cells. γH2AX was investigated as a biomarker of busulfan cytotoxicity. In particular, the presence, distribution and cellular localization of γH2AX were studied by flow cytometry (FC) and immunofluorescence (IF) on brain slices from mice treated with systemic busulfan conditioning. […] By IF, γH2AX was hardly detectable in control mice, except for some γH2AX^+ foci found in few neuronal cells, mainly localized in the hippocampus (FIG. 16C top picture), where a correlation between physiological neuronal activity and H2AX phosphorylation has previously been shown. […] Similar experiments are on going in mice expressing reporter genes expressed by the promoter of markers of hematopoietic stem cell- and microglia-specific genes, such as Fgd5 or Cx3Cr1 in order to better track busulfan-susceptible cells.
(In general: In flow cytometry, cells or beads pass a laser one at a time.)

As for `CS(=O)(=O)OCCCCOS(C)(=O)=O` [busulfan], the “neurotoxicity and local inflammation” value with brain-resident μP (ICV administration of busulfan) is “extensive neurotoxicity and local inflammation”. For the same compound, the “transplanted HSPC engraftment” value with brain-resident μP (ICV administration of busulfan, data not shown) is “nor able to favor transplanted HSPC engraftment”. Also, in the data set on brain-resident μP (ICV administration, different busulfan formulations, data not shown), the “exposure of brain-resident μP to busulfan versus systemic drug administration” value is given as “not able to guarantee exposure of brain-resident μP to busulfan levels comparable to those reached by systemic drug administration”. For the same compound, in data set [1], the “proliferation of microglia progenitors / expansion of CD45^+c-kit^+ cells in brain” value is given as “induce the proliferation of microglia progenitors and/or expand CD45^+c-kit^+ cells in the brain”. Moreover, the CFU output entry in data set [2] is on record as “drastic reduction in the CFU output”. In addition, in the data set on CD45^+ brain cells (CD45^+ brain cells, particularly CD11b^+ and c-kit^+, post-busulfan), the “early apoptosis by annexin V staining” value is reported as “early apoptosis is also detected”. Also, the “γH2AX signal by immunofluorescence on brain slices” value in the data set with CD45^+ brain cells (busulfan-treated mice, lateral ventricles, SVZ, RMS) is listed as “γH2AX^+ signal was increased in nuclei of cells lining the lateral ventricles”. In addition, the “γH2AX signal by flow cytometry” value in the data set with CD45^+ brain cells (busulfan-treated versus control untreated, live CD45^+ cells, 1 and 5 days from the last busulfan dose) was “increase of γH2AX signal”.
